This is an account of results in the Deep4Chem optical property database.

A short description of the data set: solvent given as SMILES.

Consider `C=CCOc1ccc(-c2nc3cc(C(NC(=O)OC(C)(C)C)C(=O)OC)ccc3o2)cc1` (configuration not stated), for which the absorption maximum is recorded as 324 nm (in CC1CCCCC1), 309 nm (in CC#N) and 309 nm (in CO).
As for `CC1=CC(C)=[N+]2C1=C(c1ccc(Br)cc1)c1c(C)cc(/C=C/c3ccc[nH]3)n1[B-]2(F)F`, the absorption maximum (in ClCCl) came to 590 nm.
The compound `CCC(C)(C)c1ccc2c(c1)C(CC)(CC)c1cc(-c3ccc(-c4ccc5c(c4)C(CC)(CC)c4cc(C(C)(C)CC)ccc4-5)cc3)ccc1-2` displayed an absorption maximum (in C1CCCCC1) of 332 nm.
`c1cc2cc(c1)c1cccc(c1)c1ccc3ccc4ccc(cc4c3c1)c1cccc(c1)c1cccc2c1` registered an absorption maximum (in Cc1ccccc1) of 343 nm.
Consider `CCCCCCCCCCCCn1cccc1/C=C/c1cc(OCCCC)c(/C=C/c2cccn2CCCCCCCCCCCC)cc1OCCCC`, for which the absorption maximum (in Cc1ccccc1) stood at 411 nm.
For the compound `Oc1cccc(/N=C/c2ccccc2Oc2ccccc2)c1`, the absorption maximum was determined as 322 nm (in C1CCCCC1); 327 nm (in C1CCOC1); 325 nm (in C1COCCO1); 328 nm (in CC#N); 323 nm (in CC(C)CO); 324 nm (in CC(C)O). Besides, the absorption maximum is, setting by setting: (in CCCCC) 318 nm; (in CCCCCC) 320 nm; (in CCCCCCCCO) 329 nm; (in CCCCCCCO) 325 nm; (in CCCCCCO) 321 nm; (in CCCCO) 331 nm. This compound also showed an absorption maximum (in CCCCOC(C)=O) of 326 nm; an absorption maximum (in CCCO) of 328 nm; an absorption maximum (in CCO) of 327 nm; an absorption maximum (in CCOC(C)=O) of 321 nm; an absorption maximum (in CCOCC) of 327 nm; an absorption maximum (in CN(C)C=O) of 329 nm. The compound further returned an absorption maximum (in CO) of 328 nm; an absorption maximum (in CS(C)=O) of 329 nm; an absorption maximum (in Cc1ccccc1) of 324 nm; an absorption maximum (in Cc1ccccc1C) of 327 nm; an absorption maximum (in ClC(Cl)Cl) of 328 nm; an absorption maximum (in ClCCl) of 325 nm. The absorption maximum is reported as 344 nm (in N#Cc1ccccc1), 328 nm (in OCCO) and 328 nm (in c1ccccc1).
Compound `Cc1cccc(-c2nc3sc4ccccc4c3s2)c1` had an absorption maximum (in CS(C)=O) of 348 nm.
On to `CC/[NH+]=c1\cc2oc3cc(NCCC(=O)NC(CCC(=O)OC)C(=O)OC)c4ccccc4c3nc-2cc1C` (configuration not stated), for which the absorption maximum reads like this: (in CCO) 600 nm; (in O) 600 nm.
As to `CC1(C)c2ccccc2N2c3ccccc3C3(c4cc(C#N)ccc4-c4ccc(C#N)cc43)c3cccc1c32`, the absorption maximum (in Cc1ccccc1) is 327.78 nm.
`Ic1ccc(C2=C3C=CC4=[N+]3[B-]3(Oc5ccccc54)Oc4ccccc4-c4ccc2n43)cc1` (configuration not stated) came in with an absorption maximum (in ClC(Cl)Cl) of 630 nm.
As for `CC(C)c1cc(C(C)C)c(-c2ccc(-n3c4ccccc4n4c5ccccc5nc34)nc2)c(C(C)C)c1`, where the note is “in Cc1ccccc1”, the absorption maximum stood at 345 nm.
`Fc1c(-c2nnc(-c3ccccc3)o2)c(-n2c3ccccc3c3ccccc32)c(F)c(-n2c3ccccc3c3ccccc32)c1-n1c2ccccc2c2ccccc21` showed an absorption maximum (in Cc1ccccc1) of 361 nm.
`Cc1ccc(-n2c(C)ccc2C)cc1`: the absorption maximum (in CC#N) was determined as 234 nm and the absorption maximum (in CCCCCC) is 238 nm.
With `CN(C)c1ccc2[c](c1)[Sn]([CH3])([CH3])[C]1=CC(=[N+](C)C)C=CC1=C2`, the absorption maximum (in O) worked out at 614 nm.
On to `CN(C)c1ccc(/C=C2/N=C(c3ccccc3)OC2=O)cc1`, for which the absorption maximum by setting is: (in C1CCCCC1) 456 nm; (in C1COCCO1) 466 nm; (in CC#N) 473 nm; (in CC(C)=O) 470 nm; (in CC(C)O) 470 nm; (in CCCCCC) 443 nm. Also, the absorption maximum is, setting by setting: (in CCCCCO) 470 nm; (in CCCCO) 472 nm; (in CCO) 470 nm; (in CN(C)C=O) 482 nm; (in CO) 473 nm; (in ClC(Cl)(Cl)Cl) 466 nm. Further, the absorption maximum is, setting by setting: (in ClC(Cl)Cl) 472 nm; (in ClCCl) 472 nm.
`CN(C)c1ccc2c(c1)C(=O)NC2=O`: the absorption maximum (in C1CCOC1) is given as 377 nm; the absorption maximum (in C1COCCO1) is given as 378 nm; the absorption maximum (in CC#N) worked out at 388 nm; the absorption maximum (in CC(C)(C)O) is 387 nm; the absorption maximum (in CC(C)=O) is reported as 382 nm; the absorption maximum (in CC(C)O) amounted to 389 nm. The absorption maximum was determined as 371 nm (in CCOCC), 396 nm (in CO) and 408 nm (in O).
Compound `COc1ccc2cc(-c3ccc(-c4cc5ccc(OC)cc5oc4=O)cc3)c(=O)oc2c1` had an absorption maximum (in ClC(Cl)Cl) of 362 nm.
On to `N#Cc1cccc(C#N)c1-c1ccc(N2c3ccccc3C3(c4ccccc42)c2ccccc2N(c2ccc(-c4c(C#N)cccc4C#N)cc2)c2ccccc23)cc1`, for which the absorption maximum (in Cc1ccccc1) is reported as 371.03 nm.
Consider `CCn1c2ccccc2c2cc(/C=C/c3cccc(/C=C/c4ccc5c(c4)c4ccccc4n5CC)[n+]3CCCS(=O)(=O)[O-])ccc21`, for which the absorption maximum reads like this: (in C1CCOC1) 460 nm; (in CC#N) 454 nm; (in CC(C)=O) 458 nm; (in Cc1ccccc1) 453 nm.
In the case of `CCOC(=O)c1c(-c2cc3ccc(OCC=C(C)C)cc3oc2=O)nn(-c2cccc(Cl)c2)c1C(=O)OCC`, for the setting “in ClCCl”, the absorption maximum came out at 339 nm.
Consider `C(=C\N1CCCC1)/c1nc2ccccc2nc1-c1ccccc1`, for which the absorption maximum (in CC#N) worked out at 438 nm.
On to `COc1ccccc1-c1nc(-c2ccc(C(F)(F)F)cc2)n(-c2ccc(C)cc2)c1-c1ccccc1OC`, for which the absorption maximum runs as follows: (in CC(C)O) 285 nm; (in CCCCCC) 285 nm; (in CO) 284 nm; (in CS(C)=O) 286 nm; (in ClCCl) 286 nm.
In turn, `COC(=O)C(NC(=O)CCNc1cccc2ccccc12)c1ccccc1` (configuration not stated) registered an absorption maximum (in CCO) of 330 nm.
Where the note is “in ClCCl”, `Cc1ccc([N+]2=c3c4n(c5ccccc35)[B-](F)(F)[N+](c3ccc(C)cc3)=c3c=4n(c4ccccc34)[B-]2(F)F)cc1` showed an absorption maximum of 743 nm.
`CCN(CC)c1ccc(-c2nc(Oc3ccc(-c4nc5ccccc5[nH]4)cc3)nc(Oc3ccc(-c4nc5ccccc5[nH]4)cc3)n2)cc1`: the absorption maximum (in CN(C)C=O) amounted to 376 nm.
`Cc1ccc(-c2cc3ccccc3oc2=O)cc1`: the absorption maximum is, setting by setting: (in C1CCOC1) 328 nm; (in CCCCCC) 328 nm; (in CCO) 328 nm; (in CS(C)=O) 330 nm.
Take `CC1CCC(=CS/C=C/c2ccc(/C=C/SC=C3CCC(C)CC3)cc2)CC1` (configuration not stated): the absorption maximum (in ClCCl) is on record as 350 nm.
For the setting “in CS(C)=O”, `COc1ccc(-c2c3nc(cc4ccc([nH]4)c(-c4ccc(OC)c(OCCCC(=O)O)c4)c4nc(cc5ccc2[nH]5)C=C4)C=C3)cc1OCCCC(=O)O` gave an absorption maximum of 634 nm.
Under “in ClC(Cl)Cl”, `Fc1ccc(-c2cc3c4c(c2)CCc2cc(-c5ccc(F)cc5)cc(c2-4)CC3)cc1` yielded an absorption maximum of 323.56 nm.
Take `CC(C)(C)NC(=O)c1ccc(-c2ccc(N3c4ccccc4Oc4ccccc43)cc2)c2ccc3c4ccc(F)cc4c4cc(F)ccc4c3c12`: the absorption maximum (in ClCCl) came out at 331 nm.
Compound `COc1ccc(C(=O)COc2c(C)c(=O)n3c(=O)c(C)c(COC(=O)c4ccccc4Cl)n23)cc1` yielded an absorption maximum (in CCO) of 382 nm.
`CC1(C)C(/C=C/C=C/C=C/C=C2/N(S(=O)(=O)[O-])c3ccc(S(=O)(=O)[O-])cc3C2(C)C)=[N+](S(=O)(=O)[O-])c2ccc(S(=O)(=O)[O-])cc21` showed an absorption maximum (in CO) of 755 nm.
`N#Cc1ccc(C2=CC3=c4cc(-c5ccc(C#N)cc5)c5nc(C(F)(F)C(F)(F)C(F)(F)F)nc6c(-c7ccc(C#N)cc7)cc(c4c65)C4=CC(c5ccc(C#N)cc5)=C5N=C(C(F)(F)C(F)(F)C(F)(F)F)N=C2C5C43)cc1` (configuration not stated) displayed an absorption maximum (in C1CCOC1) of 492 nm.
On to `Cc1cc(C)c(C2=C3C=C(c4ccccc4)C(c4ccccc4)=[N+]3[B-](F)(F)n3c2cc(-c2ccccc2)c3-c2ccccc2)c(C)c1`, for which the absorption maximum by setting is: (in C1CCCCC1) 590 nm; (in C1CCOC1) 587 nm; (in CC#N) 578 nm; (in Cc1ccccc1) 592 nm; (in ClCCl) 585 nm.
In turn, `C[Si](C)(C)c1cccc2c(C#N)cccc12` came in with an absorption maximum (in C1CCCCC1) of 311 nm.
As for `CC1(C)CC(/C=C/c2ccc(N3CCOCCOCCOCCOCC3)cc2)=CC(=C(C#N)C#N)C1`, the absorption maximum by setting is: (in C1CCOC1) 500 nm; (in CC#N) 493 nm; (in CCO) 504 nm; (in CCOC(C)=O) 496 nm; (in ClCCl) 502 nm; (in c1ccccc1) 500 nm.
`C=Cc1cc(OC)cc(OC)c1` gave an absorption maximum (in C1CCCCC1) of 299 nm.
As for `CN(C)c1ccc(/C=C/C(=O)O)cc1`, the absorption maximum amounted to 358 nm (in C1CCCCC1); 358 nm (in C1CCOC1); 356 nm (in C1COCCO1); 364 nm (in CC#N); 356 nm (in CCCCO); 355 nm (in CCCO). For the same compound, the absorption maximum is 358 nm (in CCOC(C)=O); 357 nm (in CO); 362 nm (in Cc1ccccc1); 323 nm (in O); 365 nm (in c1ccccc1).
Take `O=P1(c2ccccc2)C(c2ccccc2)=Cc2ccccc21` (configuration not stated): the absorption maximum by setting is: (in C1CCOC1) 347 nm; (in ClCCl) 350 nm.
As for `CN(C)c1ccc2cc3ccc(N(C)C)cc3nc2c1`, the absorption maximum (in O) came to 500 nm.
Regarding `N#Cc1c(-n2nnc3c2-c2ccccc2CN(C(=O)CCN)c2ccccc2-3)n([C@H]2C[C@H](O)[C@@H](CO)O2)c2ncnc(N)c12`, the absorption maximum (in CO) stood at 290 nm.
